Results from PMC4274187 (Bioorganic & medicinal chemistry, 2014).

Legend:
[1] = target: dopamine transporter (DAT) (Mus musculus, UniProt Q61327); experiment: DAT binding, [125I]RTI-121, mouse striatal membranes; conditions: for inhibition at 10 µM: read-out: DAT % Inh.
σ1 receptors = conditions: read-out: apparent affinity for σ1 receptors; more recent determination; cited from earlier work
[2] = test system: norepinephrine transporter; conditions: cited from earlier work
[3] = target: vesicular acetylcholine transporter; conditions: read-out: vesicular acetylcholine transporter Ki; secondary interaction; cited from earlier work
[4] = target: serotonin transporter (SERT) (Mus musculus, UniProt Q60857); experiment: SERT binding, [3H]paroxetine, mouse whole brain membranes; conditions: ratio of DAT and SERT Ki
serotonin transporter (SERT), sequence (Q60857 whole entry): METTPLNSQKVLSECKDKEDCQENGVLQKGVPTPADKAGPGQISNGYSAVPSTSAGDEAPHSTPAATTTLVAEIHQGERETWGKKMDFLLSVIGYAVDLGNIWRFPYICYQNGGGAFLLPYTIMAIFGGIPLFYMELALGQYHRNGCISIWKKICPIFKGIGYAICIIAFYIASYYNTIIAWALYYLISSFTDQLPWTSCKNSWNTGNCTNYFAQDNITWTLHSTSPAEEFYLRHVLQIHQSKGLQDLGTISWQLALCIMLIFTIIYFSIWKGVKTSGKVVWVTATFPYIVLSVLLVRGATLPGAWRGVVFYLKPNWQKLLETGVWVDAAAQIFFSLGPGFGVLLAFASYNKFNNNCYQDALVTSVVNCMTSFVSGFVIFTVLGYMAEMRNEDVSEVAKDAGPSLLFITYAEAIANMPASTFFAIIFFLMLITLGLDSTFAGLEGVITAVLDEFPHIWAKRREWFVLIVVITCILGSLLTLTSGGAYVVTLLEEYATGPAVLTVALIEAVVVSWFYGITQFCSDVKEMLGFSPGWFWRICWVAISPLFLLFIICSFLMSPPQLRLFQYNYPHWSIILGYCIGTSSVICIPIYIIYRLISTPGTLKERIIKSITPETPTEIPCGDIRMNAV

dopamine transporter (DAT), sequence (Q61327 whole entry): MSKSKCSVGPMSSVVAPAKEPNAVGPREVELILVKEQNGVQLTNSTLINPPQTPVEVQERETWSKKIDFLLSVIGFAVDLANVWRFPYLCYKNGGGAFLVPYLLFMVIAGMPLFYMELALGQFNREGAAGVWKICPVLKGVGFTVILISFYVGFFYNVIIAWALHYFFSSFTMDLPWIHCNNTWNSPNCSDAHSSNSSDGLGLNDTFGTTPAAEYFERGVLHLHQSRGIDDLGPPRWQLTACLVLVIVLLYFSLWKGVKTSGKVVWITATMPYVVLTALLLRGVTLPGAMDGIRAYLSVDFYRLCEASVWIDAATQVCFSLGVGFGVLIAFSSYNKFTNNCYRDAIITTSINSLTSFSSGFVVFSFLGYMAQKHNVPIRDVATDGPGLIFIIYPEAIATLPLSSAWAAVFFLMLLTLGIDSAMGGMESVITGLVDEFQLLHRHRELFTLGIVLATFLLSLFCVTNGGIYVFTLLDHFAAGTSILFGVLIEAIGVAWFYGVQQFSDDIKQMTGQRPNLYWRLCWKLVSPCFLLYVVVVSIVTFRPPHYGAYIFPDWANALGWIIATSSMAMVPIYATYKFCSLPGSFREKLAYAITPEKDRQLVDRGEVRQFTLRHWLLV

Row | SMILES | inhibition at 10 µM [1] [%] | Ki [1] [nM] | other results
1 | Fc1ccc(C(OCCN2CCN(CCCc3ccccc3)CC2)c2ccc(F)cc2)cc1 [GBR 12909] | – | – | Ki (σ1 receptors): 50.8 nM; affinity for the norepinephrine transporter [2]: > 1000 nM
2 | CCCOc1ccc(CCN2CCN(CCCc3ccccc3)CC2)cc1OC [compound 1, 1-(3-methoxy-4-propoxyphenethyl)-4-(3-phenylpropyl)piperazine] | – | ~2000 | –
3 | COc1cc(CCN2CCN(CCCc3ccccc3)CC2)ccc1OCc1ccccc1 [compound 4, 1-(4-(benzyloxy)-3-methoxyphenethyl)-4-(3-phenylpropyl)piperazine] | – | – | higher DAT affinity than SA4503 ([1]; relative to parent SA4503): over 100 fold

Further lines, with some results ahead:

Row | inhibition at 10 µM [1] [%] | Ki [1] [nM] | SMILES | other results
4 | 19 | – | COc1cc(CCN2CCN(CCCc3ccccc3)CC2)ccc1OCCF [FE-SA4503] | –
5 | 23 | 12700 ± 832 | COc1ccc(CCN2CCN(CCCc3ccccc3)CC2)cc1OC [SA4503, 1-[2-(3,4-dimethoxyphenyl)ethyl]-4-(3-phenylpropyl)piperazine] | Ki [3]: 50 nM; higher affinity for SERT over DAT [4]: 16 fold
6 | – | ~2000 | c1ccc(CCCN2CCN(CCc3ccc4c(c3)OCO4)CC2)cc1 [compound 7, 1-(3,4-methylenedioxyphenethyl)-4-(3-phenylpropyl)piperazine] | –
